logP and Kd data for four compounds are collected here from ChEMBL document CHEMBL1132732, “HINT predictive analysis of binding between retinol binding protein and hydrophobic ligands” (Bioorg Med Chem Lett, 2000).

Data set [1] can be described thus: Partition coefficient (logP). Particulars: octanol/water. In kind it is physicochemical.
Data set [2] in a line: Dissociation constant with retinol binding protein was determined.

Each structure is given as a SMILES string.

By logP is commonly meant the decadic logarithm of the partition coefficient of the neutral form, usually between octanol and water. A higher logP goes with a more lipophilic compound. One may read the Kd as a measure of binding affinity in units of concentration. Read a low Kd as a tighter complex. In turn, `CCNC(=O)/C=C(C)/C=C/C=C(C)/C=C/C1=C(C)CCCC1(C)C` displayed a log partition coefficient (logP) in data set [1] of 6.31. Also, the Kd in data set [2] was found to be 90 nM. With `C/C=C(C)/C=C/C=C(C)/C=C/C1=C(C)CCCC1(C)C`, the log partition coefficient (logP) in data set [1] turned out to be 8.15. Compound `CC1=C(/C=C/C(C)=C/C=C/C(C)=C/C(=O)Nc2ccc(O)cc2)C(C)(C)CCC1` [FENRETINIDE] had a Kd in data set [2] of 170 nM. As for `CC1=C(/C=C/C(C)=C/C=C/C(C)=C/CO)C(C)(C)CCC1` [RETINOL], in data set [1], the logP amounted to 6.16. Also, the dissociation constant Kd in data set [2] came out at 70 nM.
